Source: PubChem BioAssay (NCI)
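Five compound concentrations were applied to cells in 96-well plates for 48 hours; endpoints were derived by simple linear interpolation of the resulting dose-response curve. At the TGI there is no net growth.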

Assays:
Assay in all cases: NCI anticancer screen, dose series, 48 h
786-0 renal = system: 786-0 renal
A498 renal = system: A498 renal
A549 NSCLC = system: A549 NSCLC
ACHN renal = system: ACHN renal
BT-549 breast = system: BT-549 breast
CAKI-1 renal = system: CAKI-1 renal
CCRF-CEM leukemia = system: CCRF-CEM leukemia
COLO 205 colon = system: COLO 205 colon
DU-145 prostate = system: DU-145 prostate
EKVX NSCLC = system: EKVX NSCLC
HCC-2998 colon = system: HCC-2998 colon
HCT-116 colon = system: HCT-116 colon
HCT-15 colon = system: HCT-15 colon
HL-60(TB) leukemia = system: HL-60(TB) leukemia
HOP-62 NSCLC = system: HOP-62 NSCLC
HOP-92 NSCLC = system: HOP-92 NSCLC
HS 578T breast = system: HS 578T breast
HT29 colon = system: HT29 colon
IGROV1 ovarian = system: IGROV1 ovarian
K-562 leukemia = system: K-562 leukemia
KM12 colon = system: KM12 colon
LOX IMVI melanoma = system: LOX IMVI melanoma
M14 melanoma = system: M14 melanoma
MALME-3M melanoma = system: MALME-3M melanoma
MCF7 breast = system: MCF7 breast
MDA-MB-231 breast = system: MDA-MB-231 breast
MDA-MB-435 = system: MDA-MB-435
MDA-N = system: MDA-N
MOLT-4 leukemia = system: MOLT-4 leukemia
NCI-H226 lung = system: NCI-H226 lung
NCI-H23 lung = system: NCI-H23 lung
NCI-H460 lung = system: NCI-H460 lung
NCI-H522 lung = system: NCI-H522 lung
NCI/ADR-RES ovarian = system: NCI/ADR-RES ovarian
OVCAR-4 ovarian = system: OVCAR-4 ovarian
OVCAR-5 ovarian = system: OVCAR-5 ovarian
OVCAR-8 ovarian = system: OVCAR-8 ovarian
PC-3 prostate = system: PC-3 prostate
RPMI-8226 leukemia = system: RPMI-8226 leukemia
RXF 393 renal = system: RXF 393 renal
SF-268 CNS = system: SF-268 CNS
SF-295 CNS = system: SF-295 CNS
SK-MEL-2 melanoma = system: SK-MEL-2 melanoma
SK-MEL-28 melanoma = system: SK-MEL-28 melanoma
SK-MEL-5 melanoma = system: SK-MEL-5 melanoma
SK-OV-3 ovarian = system: SK-OV-3 ovarian
SN12C renal = system: SN12C renal
SNB-19 CNS = system: SNB-19 CNS
SR leukemia = system: SR leukemia
SW-620 colon = system: SW-620 colon
T-47D breast = system: T-47D breast
TK-10 renal = system: TK-10 renal
U251 CNS = system: U251 CNS
UACC-257 melanoma = system: UACC-257 melanoma
UACC-62 melanoma = system: UACC-62 melanoma
UO-31 renal = system: UO-31 renal
OVCAR-3 ovarian = system: OVCAR-3 ovarian
SF-539 CNS = system: SF-539 CNS
SNB-75 CNS = system: SNB-75 CNS

CN1C(=O)CN(NC(=O)C2=C(O)c3ccc(Br)cc3S(=O)(=O)N2)C1=S
TGI (786-0 renal): > 100 µM
TGI (A498 renal): > 100 µM
TGI (A549 NSCLC): > 100 µM
TGI (ACHN renal): > 100 µM
TGI (BT-549 breast): > 100 µM
TGI (CAKI-1 renal): > 100 µM
TGI (CCRF-CEM leukemia): 51.1 µM
TGI (COLO 205 colon): > 100 µM
TGI (DU-145 prostate): > 100 µM
TGI (EKVX NSCLC): > 100 µM
TGI (HCC-2998 colon): > 100 µM
TGI (HCT-116 colon): > 100 µM
TGI (HCT-15 colon): > 100 µM
TGI (HL-60(TB) leukemia): > 100 µM
TGI (HOP-62 NSCLC): > 100 µM
TGI (HOP-92 NSCLC): > 100 µM
TGI (HS 578T breast): > 100 µM
TGI (HT29 colon): > 100 µM
TGI (IGROV1 ovarian): > 100 µM
TGI (K-562 leukemia): > 100 µM
TGI (KM12 colon): > 100 µM
TGI (LOX IMVI melanoma): > 100 µM
TGI (M14 melanoma): > 100 µM
TGI (MALME-3M melanoma): > 100 µM
TGI (MCF7 breast): > 100 µM
TGI (MDA-MB-231 breast): > 100 µM
TGI (MDA-MB-435): > 100 µM
TGI (MDA-N): > 100 µM
TGI (MOLT-4 leukemia): > 100 µM
TGI (NCI-H226 lung): > 100 µM
TGI (NCI-H23 lung): > 100 µM
TGI (NCI-H460 lung): > 100 µM
TGI (NCI-H522 lung): > 100 µM
TGI (NCI/ADR-RES ovarian): > 100 µM
TGI (OVCAR-4 ovarian): > 100 µM
TGI (OVCAR-5 ovarian): > 100 µM
TGI (OVCAR-8 ovarian): > 100 µM
TGI (PC-3 prostate): > 100 µM
TGI (RPMI-8226 leukemia): > 100 µM
TGI (RXF 393 renal): > 100 µM
TGI (SF-268 CNS): > 100 µM
TGI (SF-295 CNS): > 100 µM
TGI (SK-MEL-2 melanoma): > 100 µM
TGI (SK-MEL-28 melanoma): > 100 µM
TGI (SK-MEL-5 melanoma): > 100 µM
TGI (SK-OV-3 ovarian): > 100 µM
TGI (SN12C renal): > 100 µM
TGI (SNB-19 CNS): > 100 µM
TGI (SR leukemia): > 100 µM
TGI (SW-620 colon): > 100 µM
TGI (T-47D breast): > 100 µM
TGI (TK-10 renal): > 100 µM
TGI (U251 CNS): > 100 µM
TGI (UACC-257 melanoma): > 100 µM
TGI (UACC-62 melanoma): > 100 µM
TGI (UO-31 renal): > 100 µM

CCOc1ccc2nc(NC(=O)/C(CC(=O)CC(C3=C(O)c4ccccc4CC3=O)c3ccccc3)=N\O)sc2c1 (stereo not drawn)
TGI (786-0 renal): > 100 µM
TGI (A498 renal): > 100 µM
TGI (A549 NSCLC): > 100 µM
TGI (ACHN renal): > 100 µM
TGI (BT-549 breast): > 100 µM
TGI (CAKI-1 renal): > 100 µM
TGI (CCRF-CEM leukemia): > 100 µM
TGI (COLO 205 colon): > 100 µM
TGI (DU-145 prostate): > 100 µM
TGI (EKVX NSCLC): > 100 µM
TGI (HCC-2998 colon): > 100 µM
TGI (HCT-116 colon): > 100 µM
TGI (HCT-15 colon): > 100 µM
TGI (HL-60(TB) leukemia): > 100 µM
TGI (HOP-92 NSCLC): > 100 µM
TGI (HS 578T breast): > 100 µM
TGI (HT29 colon): > 100 µM
TGI (IGROV1 ovarian): > 100 µM
TGI (K-562 leukemia): > 100 µM
TGI (KM12 colon): > 100 µM
TGI (LOX IMVI melanoma): > 100 µM
TGI (M14 melanoma): > 100 µM
TGI (MALME-3M melanoma): > 100 µM
TGI (MCF7 breast): > 100 µM
TGI (MDA-MB-231 breast): > 100 µM
TGI (MDA-MB-435): > 100 µM
TGI (MDA-N): > 100 µM
TGI (MOLT-4 leukemia): > 100 µM
TGI (NCI-H226 lung): > 100 µM
TGI (NCI-H23 lung): > 100 µM
TGI (NCI-H460 lung): > 100 µM
TGI (NCI-H522 lung): > 100 µM
TGI (NCI/ADR-RES ovarian): > 100 µM
TGI (OVCAR-3 ovarian): > 100 µM
TGI (OVCAR-4 ovarian): > 100 µM
TGI (OVCAR-5 ovarian): > 100 µM
TGI (OVCAR-8 ovarian): > 100 µM
TGI (PC-3 prostate): > 100 µM
TGI (RPMI-8226 leukemia): > 100 µM
TGI (RXF 393 renal): > 100 µM
TGI (SF-268 CNS): > 100 µM
TGI (SF-295 CNS): > 100 µM
TGI (SF-539 CNS): > 100 µM
TGI (SK-MEL-2 melanoma): > 100 µM
TGI (SK-MEL-28 melanoma): > 100 µM
TGI (SK-MEL-5 melanoma): > 100 µM
TGI (SK-OV-3 ovarian): > 100 µM
TGI (SN12C renal): > 100 µM
TGI (SNB-19 CNS): > 100 µM
TGI (SNB-75 CNS): > 100 µM
TGI (SR leukemia): > 100 µM
TGI (SW-620 colon): > 100 µM
TGI (T-47D breast): > 100 µM
TGI (U251 CNS): > 100 µM
TGI (UACC-257 melanoma): > 100 µM
TGI (UACC-62 melanoma): > 100 µM
TGI (UO-31 renal): > 100 µM
